According to paper PMC5896373 (Molecular Pharmacology, 2018):
Changes are numbered by the printed parent chain.

Key:
[1] = molecular target: T1, chimeric P2X7R with left flipper 280–284 of P2X4 (Homo sapiens, UniProt Q99572, D280T/I21V/K281R/M24R/N16P/N25R/N284E/Q22R/R20V/S23N/T19I/T282D/T283V/Y26L); assay: cell-based
T1 sequence (Q99572 1-595 N16P/T19I/R20V/I21V/Q22R/S23N/M24R/N25R/Y26L/D280T/K281R/T282D/T283V/N284E): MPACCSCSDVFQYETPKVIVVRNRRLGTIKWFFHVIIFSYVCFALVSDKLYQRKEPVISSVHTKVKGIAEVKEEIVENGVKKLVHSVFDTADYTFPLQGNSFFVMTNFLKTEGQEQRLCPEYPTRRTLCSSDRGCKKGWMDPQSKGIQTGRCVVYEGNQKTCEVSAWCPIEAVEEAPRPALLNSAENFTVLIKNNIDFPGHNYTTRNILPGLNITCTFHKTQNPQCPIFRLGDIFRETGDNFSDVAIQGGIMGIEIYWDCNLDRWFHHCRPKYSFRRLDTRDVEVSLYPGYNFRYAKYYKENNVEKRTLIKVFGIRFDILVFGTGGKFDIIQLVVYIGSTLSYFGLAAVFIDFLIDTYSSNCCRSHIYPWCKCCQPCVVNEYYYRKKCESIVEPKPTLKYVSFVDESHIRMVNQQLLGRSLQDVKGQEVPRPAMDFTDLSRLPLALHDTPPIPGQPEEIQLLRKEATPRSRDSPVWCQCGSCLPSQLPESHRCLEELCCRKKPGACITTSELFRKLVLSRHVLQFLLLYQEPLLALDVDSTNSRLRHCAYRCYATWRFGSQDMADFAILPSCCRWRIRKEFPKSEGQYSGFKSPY
Method: (§1) The production of the correct mutations and absence of coding errors was determined by DNA sequencing (Automated ABI Sequencing Service, University of Leicester, UK). cRNA was generated for the mutants and 50 nl (50 ng) was injected into manually defoliculated stage V Xenopus laevis oocytes using an Inject+Matic microinjector (J.A. Gabay, Inject+Matic, Geneva, Switzerland). Injected oocytes were stored at 16°C in ND96 buffer [in millimolar concentrations, NaCl 96, KCl 2, CaCl2 1.8, MgCl2 1, sodium pyruvate 5, and HEPES 5 (pH 7.6) supplemented with 50 μg/ml gentamycin and 50 μg/ml tetracycline]. Three to seven days postinjection two-electrode voltage clamp recordings were made from oocytes bathed in divalent-free ND96 buffer (in millimolar concentrations, NaCl 96, KCl 2, sodium pyruvate 5, HEPES 5, and 0.1 flufenamic acid, pH 7.6). Oocytes were voltage clamped at a holding potential of −60 mV with a GeneClamp500B amplifier (Molecular Devices).
(§2) Inhibition by the antagonists was expressed as the percentage of the peak current amplitude of an EC90 concentration of ATP recorded before the application of antagonist (ATP gave reproducible responses to ATP in the absence of antagonist). Inhibition curves were fitted with the Hill equation (variable slope) using GraphPad Prism 6 (GraphPad Software, San Diego, CA). […] Individual concentration-response curves were generated for individual experiments, and statistical analysis was carried out on the data generated. […] Data are shown as mean ± S.E.M. In all cases n ≥ 3 for all data points.

P2X7R point mutant A91C = molecular target: T2, P2X7R point mutant A91C (Homo sapiens, UniProt Q99572, A91C/I21V/M24R/N16P/N25R/Q22R/R20V/S23N/T19I/Y26L); assay: cell-based
T2 construct: expressed in transfected cells; host or cells: Xenopus laevis oocytes (cRNA injection)
Method: (§3) Injected oocytes were stored at 16°C in ND96 buffer [in millimolar concentrations, NaCl 96, KCl 2, CaCl2 1.8, MgCl2 1, sodium pyruvate 5, and HEPES 5 (pH 7.6) supplemented with 50 μg/ml gentamycin and 50 μg/ml tetracycline]. Three to seven days postinjection two-electrode voltage clamp recordings were made from oocytes bathed in divalent-free ND96 buffer (in millimolar concentrations, NaCl 96, KCl 2, sodium pyruvate 5, HEPES 5, and 0.1 flufenamic acid, pH 7.6). Oocytes were voltage clamped at a holding potential of −60 mV with a GeneClamp500B amplifier (Molecular Devices).
as §2

P2X7R point mutant T90V = molecular target: T3, P2X7R point mutant T90V (Homo sapiens, UniProt Q99572, I21V/M24R/N16P/N25R/Q22R/R20V/S23N/T19I/T90V/Y26L); assay: Two-electrode voltage clamp of ATP-evoked currents in Xenopus oocytes; assay type: cell-based; details: EC90 ATP, mean ± S.E.M.
T3 construct: expressed in transfected cells; host or cells: Xenopus laevis oocytes (cRNA injection)
Method: (§4) Additional point mutants were made using the QuikChange mutagenesis kit (Stratagene California, La Jolla, CA). The production of the correct mutations and absence of coding errors was determined by DNA sequencing (Automated ABI Sequencing Service, University of Leicester, UK). cRNA was generated for the mutants and 50 nl (50 ng) was injected into manually defoliculated stage V Xenopus laevis oocytes using an Inject+Matic microinjector (J.A. Gabay, Inject+Matic, Geneva, Switzerland). Injected oocytes were stored at 16°C in ND96 buffer [in millimolar concentrations, NaCl 96, KCl 2, CaCl2 1.8, MgCl2 1, sodium pyruvate 5, and HEPES 5 (pH 7.6) supplemented with 50 μg/ml gentamycin and 50 μg/ml tetracycline]. Three to seven days postinjection two-electrode voltage clamp recordings were made from oocytes bathed in divalent-free ND96 buffer (in millimolar concentrations, NaCl 96, KCl 2, sodium pyruvate 5, HEPES 5, and 0.1 flufenamic acid, pH 7.6). Oocytes were voltage clamped at a holding potential of −60 mV with a GeneClamp500B amplifier (Molecular Devices).
Inhibition by the antagonists was expressed as the percentage of the peak current amplitude of an EC90 concentration of ATP recorded before the application of antagonist (ATP gave reproducible responses to ATP in the absence of antagonist). […]

[2] = molecular target: T4, chimeric P2X7/1 receptor 210–217 (Homo sapiens, UniProt Q99572, G211E/I214K/I21V/INS213AAHM/L212V/M24R/N16P/N25R/P210E/Q22R/R20V/S23N/T19I/T217L/Y26L); assay: as above; assay type: cell-based
T4 construct: expressed in transfected cells; host or cells: Xenopus laevis oocytes (cRNA injection)
T4 sequence (Q99572 with tags, fused parts or gaps N16P/T19I/R20V/I21V/Q22R/S23N/M24R/N25R/Y26L/P210E/G211E/L212V/INS213AAHM/I214K/T217L): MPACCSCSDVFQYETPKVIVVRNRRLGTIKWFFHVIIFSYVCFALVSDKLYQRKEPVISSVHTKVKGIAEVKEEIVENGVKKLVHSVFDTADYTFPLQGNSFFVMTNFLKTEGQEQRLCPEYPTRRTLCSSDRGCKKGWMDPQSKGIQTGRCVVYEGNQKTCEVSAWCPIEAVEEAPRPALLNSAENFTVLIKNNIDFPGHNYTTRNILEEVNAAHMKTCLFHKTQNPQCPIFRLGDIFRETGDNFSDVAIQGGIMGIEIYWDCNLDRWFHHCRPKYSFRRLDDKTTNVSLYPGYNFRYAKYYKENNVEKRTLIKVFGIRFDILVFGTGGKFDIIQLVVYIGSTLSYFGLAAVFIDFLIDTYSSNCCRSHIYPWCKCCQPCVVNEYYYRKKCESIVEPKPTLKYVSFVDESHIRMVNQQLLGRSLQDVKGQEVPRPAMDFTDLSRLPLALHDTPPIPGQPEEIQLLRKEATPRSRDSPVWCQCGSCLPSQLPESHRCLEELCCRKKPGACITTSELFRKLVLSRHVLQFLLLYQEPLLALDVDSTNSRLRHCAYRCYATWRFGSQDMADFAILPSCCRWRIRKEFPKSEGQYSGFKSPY
Method: as §1, §2

P2X7R point mutant A166G = molecular target: T5, P2X7R point mutant A166G (Homo sapiens, UniProt Q99572, A166G/I21V/M24R/N16P/N25R/Q22R/R20V/S23N/T19I/Y26L); assay: as above; assay type: cell-based; details: EC90 ATP, mean ± S.E.M.
T5 construct: expressed in transfected cells; host or cells: Xenopus laevis oocytes (cRNA injection)
Method: as §3
Inhibition by the antagonists was expressed as the percentage of the peak current amplitude of an EC90 concentration of ATP recorded before the application of antagonist (ATP gave reproducible responses to ATP in the absence of antagonist). Inhibition curves were fitted with the Hill equation (variable slope) using GraphPad Prism 6 (GraphPad Software, San Diego, CA). […] Individual concentration-response curves were generated for individual experiments, and statistical analysis was carried out on the data generated. When shown in figures, the inhibition curves are fitted to the mean normalized data. […] Data are shown as mean ± S.E.M. In all cases n ≥ 3 for all data points.

P2X7R point mutant T308A = molecular target: T6, P2X7R point mutant T308A (Homo sapiens, UniProt Q99572, I21V/M24R/N16P/N25R/Q22R/R20V/S23N/T19I/T308A/Y26L); assay: as above; assay type: cell-based; details: EC90 ATP, mean ± S.E.M.
T6 construct: expressed in transfected cells; host or cells: Xenopus laevis oocytes (cRNA injection)
Method: as §3, §2

[3] = molecular target: T7, chimeric P2X7/1 receptor 295–310 (Homo sapiens, UniProt Q99572, E305N/I21V/I310F/K297R/K300V/K306Y/M24R/N16P/N25R/N303G/Q22R/R20V/S23N/T19I/T308H/V304T/Y26L/Y295F/Y298H/Y299F); assay: cell-based; assay type: cell-based
T7 construct: expressed in transfected cells; host or cells: Xenopus laevis oocytes (cRNA injection)
Method: as §4, §2

P2X7R point mutant K110Y = molecular target: T8, P2X7R point mutant K110Y (Homo sapiens, UniProt Q99572, I21V/K110Y/M24R/N16P/N25R/Q22R/R20V/S23N/T19I/Y26L); assay: Two-electrode voltage clamp of ATP-evoked currents in Xenopus oocytes; assay type: cell-based
T8 construct: expressed in transfected cells; host or cells: Xenopus laevis oocytes (cRNA injection)
T8 sequence (Q99572 1-595 N16P/T19I/R20V/I21V/Q22R/S23N/M24R/N25R/Y26L/K110Y): T1 sequence (Q99572 1-595 N16P/T19I/R20V/I21V/Q22R/S23N/M24R/N25R/Y26L/D280T/K281R/T282D/T283V/N284E) with K110Y, T280D, R281K, D282T, V283T, E284N
Method: as §4, §2

T3 sequence (Q99572 whole entry N16P/T19I/R20V/I21V/Q22R/S23N/M24R/N25R/Y26L/T90V): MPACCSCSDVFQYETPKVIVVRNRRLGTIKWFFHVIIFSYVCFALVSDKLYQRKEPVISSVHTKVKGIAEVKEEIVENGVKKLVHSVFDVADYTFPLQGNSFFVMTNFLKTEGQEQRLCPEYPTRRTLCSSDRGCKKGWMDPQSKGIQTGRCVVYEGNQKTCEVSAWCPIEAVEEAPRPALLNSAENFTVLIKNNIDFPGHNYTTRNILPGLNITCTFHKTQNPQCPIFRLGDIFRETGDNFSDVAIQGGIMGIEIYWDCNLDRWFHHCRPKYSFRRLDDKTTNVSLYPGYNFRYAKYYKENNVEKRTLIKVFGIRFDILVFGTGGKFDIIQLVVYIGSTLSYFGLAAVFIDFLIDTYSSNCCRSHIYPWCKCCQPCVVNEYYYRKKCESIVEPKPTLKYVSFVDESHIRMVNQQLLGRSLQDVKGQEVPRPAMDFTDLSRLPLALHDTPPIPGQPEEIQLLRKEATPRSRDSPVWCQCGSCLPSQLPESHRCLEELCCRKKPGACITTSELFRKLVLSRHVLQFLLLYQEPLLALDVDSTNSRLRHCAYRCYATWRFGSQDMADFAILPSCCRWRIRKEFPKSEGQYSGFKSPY
T2 sequence (Q99572 whole entry N16P/T19I/R20V/I21V/Q22R/S23N/M24R/N25R/Y26L/A91C): as the sequence (Q99572 whole entry N16P/T19I/R20V/I21V/Q22R/S23N/M24R/N25R/Y26L/T90V) above, with V90T, A91C counted along it
T6 sequence (Q99572 whole entry N16P/T19I/R20V/I21V/Q22R/S23N/M24R/N25R/Y26L/T308A): as the sequence (Q99572 whole entry N16P/T19I/R20V/I21V/Q22R/S23N/M24R/N25R/Y26L/T90V) above, with V90T, T308A counted along it
T7 sequence (Q99572 1-595 with the stated changes): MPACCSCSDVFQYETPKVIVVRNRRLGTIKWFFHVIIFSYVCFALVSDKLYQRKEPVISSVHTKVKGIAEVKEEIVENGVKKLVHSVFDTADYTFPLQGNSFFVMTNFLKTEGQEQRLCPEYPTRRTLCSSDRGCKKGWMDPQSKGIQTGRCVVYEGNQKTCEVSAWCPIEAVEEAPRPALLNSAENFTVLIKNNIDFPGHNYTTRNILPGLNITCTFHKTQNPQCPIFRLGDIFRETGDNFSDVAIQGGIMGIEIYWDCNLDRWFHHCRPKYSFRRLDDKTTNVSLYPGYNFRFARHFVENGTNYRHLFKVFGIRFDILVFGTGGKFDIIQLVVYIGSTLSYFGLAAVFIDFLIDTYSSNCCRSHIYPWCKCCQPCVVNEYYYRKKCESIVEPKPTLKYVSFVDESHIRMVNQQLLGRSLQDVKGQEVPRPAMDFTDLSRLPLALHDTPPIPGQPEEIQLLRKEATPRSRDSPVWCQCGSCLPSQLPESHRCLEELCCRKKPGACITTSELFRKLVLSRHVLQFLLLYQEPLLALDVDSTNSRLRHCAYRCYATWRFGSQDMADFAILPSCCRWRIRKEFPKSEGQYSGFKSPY
T5 sequence (Q99572 whole entry N16P/T19I/R20V/I21V/Q22R/S23N/M24R/N25R/Y26L/A166G): as the sequence (Q99572 whole entry N16P/T19I/R20V/I21V/Q22R/S23N/M24R/N25R/Y26L/T90V) above, with V90T, A166G counted along it

| SMILES | IC50 [1] | IC50 (P2X7R point mutant A91C) | IC50 (P2X7R point mutant T90V) | IC50 [2] | IC50 (P2X7R point mutant A166G) | IC50 (P2X7R point mutant T308A) | IC50 [3] | IC50 (P2X7R point mutant K110Y) | effect on antagonist sensitivity relative to P2X7-2Nβ ([2]; chimera 210–217) | effect on antagonist sensitivity relative to P2X7-2Nβ (P2X7R point mutant K110Y; K110Y) |
| --- | --- | --- | --- | --- | --- | --- | --- | --- | --- | --- |
| Cl.Clc1cccc(-c2nnnn2Cc2cccnc2)c1Cl.O [A438079, 3-(5-(2,3-dichlorophenyl)-1H-tetrazol-1-yl)methyl pyridine hydrochloride hydrate] | 31.6 µM | 20 µM | 5010 nM | 251 nM | 3980 nM | 1000 nM | 10 µM | 794 nM |  |  |
| COc1ccc(CC(=O)NC(N=C(NC#N)Nc2cccc3ncccc23)C(C)(C)C)cc1OC (stereo not drawn) [A740003, N-[1-[[(cyanoamino)(5-quinolinylamino)methylene]amino]-2,2-dimethylpropyl]-3,4-dimethoxybenzeneacetamide] | 0.794 µM | 2.51 µM | 398 nM | 79.4 nM | 316 nM | 100 nM | 0.501 µM | 100 nM | unaffected | no effect |
